Results on 24 molecules are retold here after patent US20230159453A1 (COCRYSTAL PHARMA, INC., priority 2020, published 2023).

In this assay the target is SARS2 protease (Severe acute respiratory syndrome coronavirus 2, UniProt P0DTD1). Nature of the assay: SARS-CoV-2 protease inhibition assay (SARS2 FRET protease assay). It counts as biochemical. The note with it: SARS-CoV-2 protease 25 nM, FRET, peptide substrate 1.3 μM, 30 minutes at 30° C., compounds 20 μM to 1.0 nM; read-out: IC50.

Take `O=C(N[C@@H](CC1CCCCC1)C(=O)N[C@@H](C[C@H]1CC2(CCCCC2)NC1=O)C(=O)C(=O)NC1CC1)OCc1cccc(Cl)c1` [Compound C149, 3-Chlorobenzyl ((S)-3-cyclohexyl-1-(((S)-4-(cyclopropylamino)-3,4-dioxo-1-((S)-2-oxo-1-azaspiro[4.5]decan-3-yl)butan-2-yl)amino)-1-oxopropan-2-yl)carbamate]: the IC50 came to 3970 nM.

As to `CC(C)(c1cccc(Cl)c1)C(OC(=O)N[C@@H](CC1CCCCC1)C(=O)N[C@@H](C[C@@H]1CCNC1=O)C(=O)C(=O)N1CCCC1)c1ccc2ccccc2c1` (stereo partly drawn) [Compound C150, 2-(3-Chlorophenyl)-2-methyl-1-(naphthalen-2-yl)propyl ((S)-3-cyclohexyl-1-(((S)-3,4-dioxo-1-((S)-2-oxopyrrolidin-3-yl)-4-(pyrrolidin-1-yl)butan-2-yl)amino)-1-oxopropan-2-yl)carbamate], the IC50 is over 20000 nM.

As to `O=C(N[C@@H](CC1CCCCC1)C(=O)N[C@@H](C[C@@H]1CCNC1=O)C(=O)C(=O)NC1CC1)OC1CCCC1Cc1cccc(Cl)c1` (stereo partly drawn) [Compound C151, 2-(3-Chlorobenzyl)cyclopentyl ((S)-3-cyclohexyl-1-(((S)-4-(cyclopropylamino)-3,4-dioxo-1-((S)-2-oxopyrrolidin-3-yl)butan-2-yl)amino)-1-oxopropan-2-yl)carbamate], the 50% inhibitory concentration (IC50) amounted to 3670 nM. Then `CC(C)C[C@H](NC(=O)OC1CCCC1Cc1cccc(Cl)c1)C(=O)N[C@H](C=O)C[C@@H]1CCNC1=O` (stereo partly drawn) [Compound C152, 2-(3-chlorobenzyl)cyclopentyl ((S)-4-methyl-1-oxo-1-(((S)-1-oxo-3-((S)-2-oxopyrrolidin-3-yl)propan-2-yl)amino)pentan-2-yl)carbamate], with 11.8 nM; and `O=C(N[C@@H](CC1CCCCC1)C(=O)NC(CC1CC2(CCCCC2)NC1=O)C(=O)C(=O)NC1CC1)OC(Cc1cccc(Cl)c1)c1ccccc1` (stereo partly drawn) [Compound C153, 2-(3-Chlorophenyl)-1-phenylethyl ((2S)-3-cyclohexyl-1-((4-(cyclopropylamino)-3,4-dioxo-1-(2-oxo-1-azaspiro[4.5]decan-3-yl)butan-2-yl)amino)-1-oxopropan-2-yl)carbamate], with over 20000 nM. The same measure for `O=C(N[C@@H](CC1CCCCC1)C(=O)N[C@@H](C[C@@H]1CCNC1=O)C(=O)C(=O)NC1CC1)OCc1cccc(Cl)c1` [Compound C154, 3-Chlorobenzyl ((S)-3-cyclohexyl-1-(((S)-4-(cyclopropylamino)-3,4-dioxo-1-((S)-2-oxopyrrolidin-3-yl)butan-2-yl)amino)-1-oxopropan-2-yl)carbamate]: 1480 nM; for `CC1(C)CC(CC(NC(=O)[C@H](CC2CCCCC2)NC(=O)OC(Cc2cccc(Cl)c2)c2ccccc2)C(=O)C(=O)NC2CC2)C(=O)N1` (stereo partly drawn) [Compound C155, 2-(3-Chlorophenyl)-1-phenylethyl ((2S)-3-cyclohexyl-1-((4-(cyclopropylamino)-1-(5,5-dimethyl-2-oxopyrrolidin-3-yl)-3,4-dioxobutan-2-yl)amino)-1-oxopropan-2-yl) carbamate]: 1560 nM; for `CC1(C)CC(C[C@@H](C=O)NC(=O)[C@H](CC2CCCCC2)NC(=O)OC2CCCC2Cc2cccc(Cl)c2)C(=O)N1` (stereo partly drawn) [Compound C156, 2-(3-Chlorobenzyl)cyclopentyl ((2S)-3-cyclohexyl-1-((1-(5,5-dimethyl-2-oxopyrrolidin-3-yl)-3-oxopropan-2-yl)amino)-1-oxopropan-2-yl)carbamate]: 52.8 nM.

Take `CCCC[C@H](NC(=O)OC(c1ccccc1)C(C)(C)c1cccc(Cl)c1)C(=O)N[C@H](C=O)C[C@@H]1CCNC1=O` (stereo partly drawn) [Compound C157, 2-(3-Chlorophenyl)-2-methyl-1-phenylpropyl ((S)-1-oxo-1-(((S)-1-oxo-3-((S)-2-oxopyrrolidin-3-yl)propan-2-yl)amino)hexan-2-yl) carbamate]: the IC50 turned out to be 0.1 nM. With `O=C(N[C@@H](CC1CCCCC1)C(=O)N[C@@H](C[C@@H]1CCNC1=O)C(=O)C(=O)NC1CC1)OC(Cc1cccc(Cl)c1)c1ccccc1` (stereo partly drawn) [Compound C158], the IC50 was found to be 2610 nM. The same measure for `O=C(N[C@@H](CC1CCCCC1)C(=O)N[C@@H](C[C@@H]1CC2(CCCC2)NC1=O)C(=O)C(=O)NC1CC1)OC1CCCC1Cc1cccc(Cl)c1` (stereo partly drawn) [Compound C159, 2-(3-Chlorobenzyl)cyclopentyl ((2S)-3-cyclohexyl-1-((4-(cyclopropylamino)-3,4-dioxo-1-(2-oxo-1-azaspiro[4.4]nonan-3-yl)butan-2-yl)amino)-1-oxopropan-2-yl)carbamate]: 3490 nM; for `CC(C)(c1cccc(Cl)c1)C(OC(=O)N[C@@H](CC1CCCCC1)C(=O)N[C@H](C=O)C[C@@H]1CCNC1=O)c1ccccc1Cl` (stereo partly drawn) [Compound C160, 1-(2-chlorophenyl)-2-(3-chlorophenyl)-2-methylpropyl ((S)-3-cyclohexyl-1-oxo-1-(((S)-1-oxo-3-((S)-2-oxopyrrolidin-3-yl)propan-2-yl)amino)propan-2-yl) carbamate]: 24.7 nM; for `CC1(C)CC(C[C@@H](C=O)NC(=O)[C@H](CC2CCCCC2)NC(=O)OC(Cc2cccc(Cl)c2)c2cccc(Cl)c2)C(=O)N1` (stereo partly drawn) [Compound C162, 1,2-Bis(3-Chlorophenyl)ethyl ((2S)-3-cyclohexyl-1-((1-(5,5-dimethyl-2-oxopyrrolidin-3-yl)-3-oxopropan-2-yl)amino)-1-oxopropan-2-yl)carbamate]: 92.2 nM. The same measure for `CC(C)C[C@H](NC(=O)OC(c1ccccc1)C(C)(C)c1cccc(Cl)c1)C(=O)N[C@@H](CC1CC(C)(C)NC1=O)C(=O)C(=O)NC1CC1` (stereo partly drawn) [Compound C163, 2-(3-Chlorophenyl)-2-methyl-1-phenylpropyl ((2S)-1-((4-(cyclopropylamino)-1-(5,5-dimethyl-2-oxopyrrolidin-3-yl)-3,4-dioxobutan-2-yl)amino)-4-methyl-1-oxopentan-2-yl) carbamate]: 1810 nM; for `CCCC[C@H](NC(=O)OC(c1ccccc1)C(C)(C)c1cccc(Cl)c1)C(=O)N[C@@H](CC1CCNC1=O)C(=O)C(N)=O` (stereo partly drawn) [Compound C164, 2-(3-Chlorophenyl)-2-methyl-1-phenylpropyl ((S)-1-(((S)-4-amino-3,4-dioxo-1-((S)-2-oxopyrrolidin-3-yl)butan-2-yl)amino)-1-oxohexan-2-yl) carbamate]: 144 nM. For the molecule `O=C[C@H](CC1CC2(CCCC2)NC1=O)NC(=O)[C@H](CC1CCCCC1)NC(=O)OC1CCCC1Cc1cccc(Cl)c1` (stereo partly drawn) [Compound C165, 2-(3-chlorobenzyl)cyclopentyl ((2S)-3-cyclohexyl-1-oxo-1-((1-oxo-3-(2-oxo-1-azaspiro[4.4]nonan-3-yl)propan-2-yl)amino)propan-2-yl)carbamate], the IC50 was determined as 106 nM. Then `CC(C)C[C@H](NC(=O)OC(c1ccccc1)C(C)(C)c1cccc(Cl)c1)C(=O)N[C@@H](C[C@@H]1CCNC1=O)C(=O)C(=O)NC1CC1` (stereo partly drawn) [Compound C166, 2-(3-Chlorophenyl)-2-methyl-1-phenylpropyl ((S)-1-(((S)-4-(cyclopropylamino)-3,4-dioxo-1-((S)-2-oxopyrrolidin-3-yl)butan-2-yl)amino)-4-methyl-1-oxopentan-2-yl)carbamate], with 14 nM. Regarding `CC1(C)CC(C[C@H](NC(=O)[C@H](CC2CCCCC2)NC(=O)OC2CCCC2Cc2cccc(Cl)c2)C(=O)C(=O)NC2CC2)C(=O)N1` (stereo partly drawn) [Compound C167, 2-(3-Chlorobenzyl)cyclopentyl ((2S)-3-cyclohexyl-1-((4-(cyclopropylamino)-1-(5,5-dimethyl-2-oxopyrrolidin-3-yl)-3,4-dioxobutan-2-yl)amino)-1-oxopropan-2-yl)carbamate], the IC50 is 2050 nM.

`O=C(N[C@@H](CC1CCCCC1)C(=O)N[C@@H](CC1CC2(CCCCC2)NC1=O)C(=O)CO)OCc1cccc(Cl)c1` (stereo partly drawn) [Compound C168, 3-Chlorobenzyl ((2S)-3-cyclohexyl-1-(((2S)-4-hydroxy-3-oxo-1-(2-oxo-1-azaspiro[4.5]decan-3-yl)butan-2-yl)amino)-1-oxopropan-2-yl)carbamate]: the IC50 is 5440 nM. Then `CC(C)C[C@H](NC(=O)OC1(Cc2cccc(Cl)c2)CCC1)C(=O)N[C@@H](CC1CC2(CCOCC2)NC1=O)C(=O)C(=O)NC1CC1` (stereo partly drawn) [Compound C169, 1-(3-chlorobenzyl)cyclobutyl ((2S)-1-((4-(cyclopropylamino)-3,4-dioxo-1-(2-oxo-8-oxa-1-azaspiro[4.5]decan-3-yl)butan-2-yl)amino)-4-methyl-1-oxopentan-2-yl)carbamate], with 5990 nM. The same measure for `CS(=O)(=O)N1CCC2(CC1)CC(C[C@H](NC(=O)[C@H](CC1CCCCC1)NC(=O)OCc1cccc(Cl)c1)C(=O)C(=O)NC1CC1)C(=O)N2` (stereo partly drawn) [Compound C170, 3-Chlorobenzyl ((2S)-3-cyclohexyl-1-(((2S)-4-(cyclopropylamino)-1-(8-(methylsulfonyl)-2-oxo-1,8-diazaspiro[4.5]decan-3-yl)-3,4-dioxobutan-2-yl)amino)-1-oxopropan-2-yl)carbamate]: 1840 nM; for `O=C(N[C@@H](CC1CCCCC1)C(=O)N[C@@H](CC1CC2(CCCCC2)NC1=O)C(=O)C(=O)N1CCCC1)c1cc2ccccc2[nH]1` (stereo partly drawn) [Compound C171, N-((2S)-3-cyclohexyl-1-((3,4-dioxo-1-(2-oxo-1-azaspiro[4.5]decan-3-yl)-4-(pyrrolidin-1-yl)butan-2-yl)amino)-1-oxopropan-2-yl)-1H-indole-2-carboxamide]: 11000 nM. The same measure for `CC1(C)CC(C[C@H](NC(=O)[C@H](CC2CCCCC2)NC(=O)OC(Cc2cccc(Cl)c2)c2cccc(Cl)c2)C(=O)C(=O)NC2CC2)C(=O)N1` (stereo partly drawn) [Compound C172, 1,2-Bis (3-Chlorophenyl) ethyl ((2S)-3-cyclohexyl-1-((4-(cyclopropylamino)-1-(5,5-dimethyl-2-oxopyrrolidin-3-yl)-3,4-dioxobutan-2-yl)amino)-1-oxopropan-2-yl)carbamate]: 1670 nM. With `O=C(N[C@@H](CC1CCCCC1)C(=O)N[C@@H](C[C@@H]1CCNC1=O)C(=O)C(=O)NC1CC1)OCc1cccc(Cl)c1` [Compound C173], the IC50 was 1430 nM.

By IC50 is commonly meant the concentration that gives 50% inhibition.
